We go through 14 molecules from BindingDB's records for doi:10.1021/jm00048a015 (Pfizer, 1994).

Molecules are shown by their SMILES.

The test concerns the target Gastrin/cholecystokinin type B receptor (Cavia porcellus). The experiment in a line: In vitro affinity to the cholecystokinin type B receptor in guinea pig cortex assayed using [125I]BH-CCK-8 as radioligand.
As for `Cc1cccc(NC(=O)N[C@@H]2C[C@H](c3ccccc3)c3ccccc3N(CC(=O)OC(C)(C)C)C2=O)c1` [[(3R,5R)-2-Oxo-5-phenyl-3-(3-m-tolyl-ureido)-2,3,4,5-tetrahydro-benzo[b]azepin-1-yl]-acetic acid tert-butyl ester], the IC50 turned out to be 2.5 nM.

As for `Cc1ccccc1NC(=O)N[C@@H]1C[C@H](c2ccccc2)c2ccccc2N(CC(=O)NC(C)(C)C)C1=O` [N-tert-Butyl-2-[(3R,5R)-2-oxo-5-phenyl-3-(3-o-tolyl-ureido)-2,3,4,5-tetrahydro-benzo[b]azepin-1-yl]-acetamide], the 50% inhibitory concentration (IC50) turned out to be 55 nM.

The molecule `Cc1ccc2c(c1)N(CC(=O)NC(C)(C)C)C(=O)[C@H](NC(=O)Nc1cccc(Cl)c1)C[C@@H]2C(C)C` [N-tert-Butyl-2-{(3R,5R)-3-[3-(3-chloro-phenyl)-ureido]-5-isopropyl-8-methyl-2-oxo-2,3,4,5-tetrahydro-benzo[b]azepin-1-yl}-acetamide] registered an IC50 of 3.4 nM.

`COc1cccc(NC(=O)N[C@@H]2C[C@H](c3ccccc3)c3ccccc3N(CC(=O)NC(C)(C)C)C2=O)c1` [N-tert-Butyl-2-{(3R,5R)-3-[3-(3-methoxy-phenyl)-ureido]-2-oxo-5-phenyl-2,3,4,5-tetrahydro-benzo[b]azepin-1-yl}-acetamide] came in with an IC50 of 30.4 nM. This IC50 is about 8.9-fold higher than that of the molecule before.

Turning to `Cc1ccc2c(c1)N(CC(=O)OC(C)(C)C)C(=O)[C@H](NC(=O)Nc1cccc(Cl)c1)C[C@@H]2c1ccccc1` [{(3R,5R)-3-[3-(3-Chloro-phenyl)-ureido]-8-methyl-2-oxo-5-phenyl-2,3,4,5-tetrahydro-benzo[b]azepin-1-yl}-acetic acid tert-butyl ester], the IC50 was 2.2 nM.

In the case of `CCC(C)(C)NC(=O)CN1C(=O)[C@H](NC(=O)Nc2cccc(Cl)c2)C[C@H](c2ccccc2)c2ccccc21` [2-{(3R,5R)-3-[3-(3-Chloro-phenyl)-ureido]-2-oxo-5-phenyl-2,3,4,5-tetrahydro-benzo[b]azepin-1-yl}-N-(1,1-dimethyl-propyl)-acetamide], the IC50 was found to be 7.6 nM.

`Cc1ccc2c(c1)N(CC(=O)NC(C)(C)C)C(=O)[C@H](NC(=O)Nc1cccc(Cl)c1)C[C@@H]2C1CCCCC1` [N-tert-Butyl-2-{(3R,5R)-3-[3-(3-chloro-phenyl)-ureido]-5-cyclohexyl-8-methyl-2-oxo-2,3,4,5-tetrahydro-benzo[b]azepin-1-yl}-acetamide] showed an IC50 of 0.6 nM.

On to `Cc1ccc2c(c1)N(CC(=O)NC(C)(C)C)C(=O)[C@H](NC(=O)Nc1cccc(Cl)c1)C[C@@H]2Cc1ccccc1` [2-{(3R,5S)-5-Benzyl-3-[3-(3-chloro-phenyl)-ureido]-8-methyl-2-oxo-2,3,4,5-tetrahydro-benzo[b]azepin-1-yl}-N-tert-butyl-acetamide], for which the half-inhibitory concentration (IC50) was 1.4 nM. This IC50 is about 2.3-fold higher than that of the molecule before.

`CC(C)(C)NC(=O)CN1C(=O)[C@H](NC(=O)Nc2cccc(Cl)c2)C[C@H](c2cccc(Cl)c2)c2ccccc21` [N-tert-Butyl-2-{(3R,5R)-5-(3-chloro-phenyl)-3-[3-(3-chloro-phenyl)-ureido]-2-oxo-2,3,4,5-tetrahydro-benzo[b]azepin-1-yl}-acetamide] registered a concentration for half-maximal inhibition (IC50) of 4 nM.

Regarding `Cc1cccc(NC(=O)N[C@@H]2C[C@H](c3ccccc3)c3ccccc3N(CC(=O)NC(C)(C)C)C2=O)c1` [N-tert-Butyl-2-[(3R,5R)-2-oxo-5-phenyl-3-(3-m-tolyl-ureido)-2,3,4,5-tetrahydro-benzo[b]azepin-1-yl]-acetamide], the IC50 stood at 10.1 nM.

As to `Cc1ccc2c(c1)[C@@H](c1ccccc1)C[C@@H](NC(=O)Nc1cccc(Cl)c1)C(=O)N2CC(=O)NC(C)(C)C` [N-tert-Butyl-2-{(3R,5R)-3-[3-(3-chloro-phenyl)-ureido]-7-methyl-2-oxo-5-phenyl-2,3,4,5-tetrahydro-benzo[b]azepin-1-yl}-acetamide], the IC50 was determined as 32 nM.

As to `Cc1ccc(NC(=O)N[C@@H]2C[C@H](c3ccccc3)c3ccccc3N(CC(=O)NC(C)(C)C)C2=O)cc1` [N-tert-Butyl-2-[(3R,5R)-2-oxo-5-phenyl-3-(3-p-tolyl-ureido)-2,3,4,5-tetrahydro-benzo[b]azepin-1-yl]-acetamide], the IC50 stood at 35 nM.

Take `CN(C(=O)CN1C(=O)[C@H](NC(=O)Nc2cccc(Cl)c2)C[C@H](c2ccccc2)c2ccccc21)C(C)(C)C` [N-tert-Butyl-2-{(3R,5R)-3-[3-(3-chloro-phenyl)-ureido]-2-oxo-5-phenyl-2,3,4,5-tetrahydro-benzo[b]azepin-1-yl}-N-methyl-acetamide]: the IC50 stood at 1.5 nM.

`CC(C)(C)NC(=O)CN1C(=O)[C@H](NC(=O)Nc2cccc(Cl)c2)C[C@H](c2ccccc2)c2cc(Cl)ccc21` [N-tert-Butyl-2-{(3R,5R)-7-chloro-3-[3-(3-chloro-phenyl)-ureido]-2-oxo-5-phenyl-2,3,4,5-tetrahydro-benzo[b]azepin-1-yl}-acetamide] registered an IC50 of 24 nM.
